In patent US20020032183A1, “Use of (di-substituted-phenyl)-pyrimidinyl-imidazole derivatives as JNK-inhibitors” (priority 2000, published 2002):

Key:
Assay type in all cases: cell-based
[1] = test system: Rat superior cervical ganglion neurons; assay: Sympathetic neuronal survival assay (no NGF exposure; GAP-43 ELISA and cell counts); conditions: for Survival, ELISA Data Mean / Survival, Cell Counts Mean: 48 hours; for Survival, ELISA Data Mean: GAP-43 ELISA; for Survival, Cell Counts Mean: immunostained neurons per well
Procedure: (§1) Activation of c-jun-N-terminal kinase (JNK) has been implicated in apoptosis in sympathetic neurons. An inhibitor of JNK, Example 2, was tested for neuroprotective effects in two models of sympathetic neuronal cell death.
In the first model, ganglia were dissociated and plated directly into culture plates in the presence of compound for 48 hours, then fixed and survival assayed using an ELISA for GAP-43. This model will hereafter be referred to as the ‘survival assay’.
(§2) Ganglia were enzymatically dissociated using 0.25% trypsin for 45 minutes. The trypsin was then inhibited using Dulbecco's MEM (DMEM) supplemented with 10% fetal bovine serum, and the cells mechanically triturated using a pipette tip to form a single cell suspension. Neurons in the suspension were counted using a haemocytometer, and plated at a density of 3000-5000 neurons per well in poly-D-lysine and laminin coated 96 well tissue culture clusters in DMEM supplemented with B27 serum substitute. Cultures were then incubated at 37° C./5% CO2. One hour following plating, cultures were either treated with NGF 25 ng/ml or with L-790,984 at a range of concentrations for the NGF deprivation and survival assays respectively.
(§3) Cultures for the NGF deprivation assay were returned to the incubator for 4 days. Following this, the medium was aspirated, plates washed once with DMEM/B27, and the cultures treated with Example 2 at concentrations ranging from 1 nM to 10 μM, together with an anti-NGF blocking antibody at 250 ng/ml. Cultures were then returned to the incubator for a further 72 hours prior to fixation and survival quantification. Cultures treated with Example 2 immediately for the survival assay were returned to the incubator for 48 hours; cultures were then fixed and survival quantified using the GAP-43 ELISA.
(§4) Cultures were fixed by the addition of an equal volume 4% paraformaldehyde to each well for 10 minutes; this was then aspirated, and replaced by a further volume of 4% paraformaldehyde for a further 20 minutes at room temperature. Plates were then washed three times with PBS/0.3% TX100, and non-specific binding sites blocked by the addition of 5% normal horse serum (NHS) in PBS/0.3% TX100. Plates were incubated at room temperature for one hour, then the blocking serum was aspirated without washing and replaced with primary antibody. The primary antibody used was a mouse monoclonal antibody raised against Growth Associated Protein 43 (Sigma), prepared at a dilution of 1:500 in PBS/0.3% TX100/5% NHS. Primary antibody was added to all sample wells, with four control wells returned to blocking serum to act as minus primary control. Plates were then refrigerated overnight at 4° C. The next day, plates were washed three times with PBS/0.3 TX100 and secondary antibody added. The secondary antibody used was peroxidase conjugated sheep anti-mouse IgG, and was added at a dilution of 1:1000 in PBS/0.3% TX100/5% NHS. Plates were incubated for 1 hour at room temperature, then washed three times with PBS/0.3% TX100, and K-Blue insoluble peroxidase substrate added for 30 minutes at room temperature. The optical density of the plates was then read at 650 nm, and the survival of neurons calculated and expressed as percentage of the control response.
(§5) Cell counts were performed on one sample plate for each model of sympathetic neuronal cell death, by the addition of a tertiary antibody to the plate, followed by avidin-biotin complex and an insoluble peroxidase substrate. Following quantification of optical density, plates were washed three times in PBS/0.3% TX100, and non-specific sites blocked using PBS/0.3% TX100/5% normal rabbit serum (“NRS”). Plates were incubated for one hour at room temperature, then the blocking serum was aspirated and replaced with biotinylated rabbit anti-sheep IgG at a dilution of 1:500 in PBS/0.3% TX10O/5% NRS. […]

[2] = test system: Rat superior cervical ganglion neurons; assay: Sympathetic neuronal NGF deprivation assay (GAP-43 ELISA and cell counts); conditions: for Survival, Cell Counts Mean / Survival, ELISA Data Mean: 72 hours; for Survival, ELISA Data Mean: GAP-43 ELISA
Procedure: as §1
In the second model, ganglia were dissociated and plated in the presence of NGF 25 ng/ml for 4 days. The NGF was then removed by washing and application of a blocking antibody, and L-790,984 coadministered for 72 hours. Survival was then assayed using the GAP-43 ELISA. This model will be referred to hereafter as the ‘NGF deprivation assay’.
as §2, §3, §4, §5

[3] = test system: mouse cerebellar granule neurons; assay: Detection of neuronal apoptosis in mouse cerebellar granule neurons (low K+); conditions: Neuron, low (5 mM) K+, serum-free, 8 h, FIG. 1, read-out: IC50 for inhibition of neuronal apoptosis
Procedure: 1. Dissect out cerebella from 7-9 day old CD-I mouse pups; remove meninges.
2. Mince and dissociate with trypsin. Halt trypsinization with Dnase I and egg white trypsin inhibitor.
3. Individual cells are obtained by trituration with a pasteur pipet.
4. Cells were resuspended in cell culture media [(cMEM) E-MEM), 25 mM glucose, 10% fetal bovine serum, 2 mM glutamine, 100 μg/mL gentamycin, 25 mM KCl] and seeded at 1.2×10^5 cells per well onto 96-well microplates pre-coated with poly-D-lysine.
5. Cultures were incubated at 37° C. in 6% CO2, and were used for experiments on day 5-7 in vitro.
1. Replace media in column 1 with serum-free cMEM. Replace medium in columns 2-12 with serum-free cMEM with low (5 mM) K+.
2. Add drug titrations (serial diluted in DMSO; final 1% DMSO). Incubate 8 h @ 37° C.
3. Spin plate @ 1500 rpm 10 min., remove media and add lysis buffer.
4. Incubate 30 min. room temp. shaking.
5. Spin plate @ 1500 rpm 10 min., transfer supernatant to fresh plate. Store @ 4° C.
6. Transfer 5 μL supernatant and 45 μL EIA reagent to EIA strip plate (positive control standards in column 12); incubate @ room temp 2 h.
7. Wash strip plate with PBS using the plate washer.
8. Add 150 μL K-blue substrate (ELISA Technologies, Inc., Gainsville, Fla.); stop using 50 μL Red Stop. Read plate @ 650 nm.

CCCn1c(C2CCN(C)CC2)nc(-c2ccc(Cl)c(Cl)c2)c1-c1ccnc(NC2CC2)n1 [Example 2, Cyclopropyl-{4-[5-(3,4-dichlorophenyl)-2-[(1-methyl)-piperidin]-4-yl-3-propyl-3H-imidazol-4-yl]-pyrimidin-2-yl}amine]
Survival, ELISA Data Mean ([1]; 0.01 μM): 112.10 | Survival, Cell Counts Mean ([1]; 0.01 μM): 115.50 | Survival, ELISA Data Mean ([1]; 0.03 μM): 99.19 | Survival, Cell Counts Mean ([1]; 0.03 μM): 127.25 | Survival, ELISA Data Mean ([1]; 0.1 μM): 131.45 | Survival, Cell Counts Mean ([1]; 0.1 μM): 170.50 | Survival, ELISA Data Mean ([1]; 0.3 μM): 209.68 | Survival, Cell Counts Mean ([1]; 0.3 μM): 267.50 | Survival, ELISA Data Mean ([1]; 1 μM): 350.81 | Survival, Cell Counts Mean ([1]; 1 μM): 363.00 | Survival, ELISA Data Mean ([1]; 3 μM): 270.16 | Survival, Cell Counts Mean ([1]; 3 μM): 321.00 | Concentrations at which the survival response declines ([1]; data not shown): above 3 μM | Concentrations at which the survival response was significant ([1]; quantified by ELISA): ≥ 300 nM | Survival, Cell Counts Mean ([2]; 0.001 μM + anti-NGF 250 ng/ml): 82.00 | Survival, ELISA Data Mean ([2]; 0.001 μM + anti-NGF 250 ng/ml): 35.44 | Survival, Cell Counts Mean ([2]; 0.01 μM + anti-NGF 250 ng/ml): 81.00 | Survival, ELISA Data Mean ([2]; 0.01 μM + anti-NGF 250 ng/ml): 28.20 | Survival, Cell Counts Mean ([2]; 0.1 μM + anti-NGF 250 ng/ml): 53.75 | Survival, ELISA Data Mean ([2]; 0.1 μM + anti-NGF 250 ng/ml): 22.89 | Survival, Cell Counts Mean ([2]; 0.5 μM + anti-NGF 250 ng/ml): 140.25 | Survival, ELISA Data Mean ([2]; 0.5 μM + anti-NGF 250 ng/ml): 60.15 | Survival, Cell Counts Mean ([2]; 1 μM + anti-NGF 250 ng/ml): 200.00 | Survival, ELISA Data Mean ([2]; 1 μM + anti-NGF 250 ng/ml): 102.79 | Concentrations at which the survival response was significant ([2]; measured by ELISA): ≥ 500 nM | Concentrations at which the survival response was significant ([2]; measured by cell counts): ≥ 500 nM | IC50 [3]: 100 nM
